In US20050171171A1, “Amide derivatives as FLT-3 modulators” (Ambit Biosciences Corporation, priority 2003, published 2005):

Columns and labels:
MV4,11 cells = experiment: Cell Assay: CS0001, FLT3 assay using MV4,11 cells (MTS proliferation); format: cell-based; conditions: Homo sapiens
Protocol: The ability of FLT3 kinase inhibitors to inhibit cellular proliferation was also examined. MV4:11 was a cell line derived from a patient with acute myelogenous leukemia. It expressed a mutant FLT3 protein that was constitutively active. […] Inhibition of FLT3 kinase activity prevented proliferation of these cells, and thus the MV4:11 cell line can be used a model for cellular activity of small molecule inhibitors of FLT3.
FLT3 Assay Using MV4,11 Cells
MV4,11 cells were grown in an incubator @ 37° C. in 5% CO2 in Medium 2 (RPM 10% FBS, 4 mM glutamine, Penn/Strep). The cells were counted daily and the cell density was kept between 1e5 and 8e5 cells/ml.
Day One: Enough cells were harvested for experiments to be conducted in 50 ml conical tubes. The harvested cells were spun at 500 g for 5 min at 4° C., the supernatant was then aspirated and the cells were resuspended in the starting volume of 1× PBS. The cells were again spun at 500 g for 5 min at 4° C. and the supernatant again aspirated. The cells were then resuspended in medium 3 (DMEM w/glut, 10% FBS, Penn/Strep) to a density of 4e5 cells/ml and incubated @ 37° C. in 5% CO2 O/N.
Day Two: The cells were counted and enough medium 3 was added to decrease density to 2e5 cells/ml. 50 ul (10,000 cells) was aliquoted into each well of a 96 well optical plate using multichannel pipetman. The compound plate was then set up by aliquoting 3 μl of negative control (DMSO) into column 1 of a 96 well 300 ul polypropylene plate, aliquoting 3 μl of positive control (10 mM AB20121) into column 12 of plate, and aliquoting 3 μl of appropriate compounds from serial dilutions into columns 2-11. To each well, 150 μl of Medium 3 was added and 50 μl of compound/medium mixture from compound plate into rows of optical plate in duplicate. The cells were then incubated @ 37° C. in 5% CO2 for 3 days.
Day Five: MTS was thawed in a H2O bath. 20 μl of MTS was added to each well of optical plate and the cells were incubated @ 37° C. in 5% CO2 for 2 hours. The plate was then placed on a plate shaker for 30 seconds on high speed.

FLT3(JMminus) = molecular target: T1, FLT3(JMminus) (Homo sapiens, UniProt P36888); experiment: Binding Assay: FLT3(JMminus), phage-displayed kinase competition binding (Kd)
T1 construct: "FLT 3(JMminus)"; fused on or other part: Fused to a T7 bacteriophage particle (phage display)
T1 sequence (P36888 610-943 limits assumed): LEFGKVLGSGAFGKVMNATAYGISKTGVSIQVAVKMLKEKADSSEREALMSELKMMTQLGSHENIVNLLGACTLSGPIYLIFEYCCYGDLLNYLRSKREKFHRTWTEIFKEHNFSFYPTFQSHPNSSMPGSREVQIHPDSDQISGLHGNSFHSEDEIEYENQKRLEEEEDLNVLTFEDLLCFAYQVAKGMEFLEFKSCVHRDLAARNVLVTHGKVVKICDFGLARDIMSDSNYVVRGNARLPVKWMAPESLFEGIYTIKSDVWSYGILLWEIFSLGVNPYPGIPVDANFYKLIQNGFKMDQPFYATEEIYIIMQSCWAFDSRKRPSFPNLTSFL
From the text: (§1) Binding Constant (Kd) Measurements for Small-Molecule-Kinase Interactions
(§2) The term “ND” represents non-determined values.

Cell Assay: CS0002 = format: cell-based
FLT3(DKIN) = molecular target: T2, FLT3(DKIN) (Homo sapiens, UniProt P36888); experiment: Binding Assay: FLT3(DKIN), phage-displayed kinase competition binding (Kd)
T2 construct: 3(DKIN); made in house
T2 sequence (P36888 610-943 limits assumed): T1 sequence (P36888 610-943 limits assumed)
From the text: as §1, §2

| SMILES | IC50 (MV4,11 cells) [µM] | Kd (FLT3(JMminus)) [µM] | IC50 (Cell Assay: CS0002) [µM] | Kd (FLT3(DKIN)) [µM] |
| --- | --- | --- | --- | --- |
| CC(C)(C)c1cc(NC(=O)Cc2ccc(NC(=O)c3cnc4ccccc4c3)cc2)no1 | < 0.1 | < 0.1 | > 10 |  |
| CC(C)(C)c1cc(C(=O)Nc2ccc(OCc3ccccc3F)cc2)no1 | 1 to 10 |  |  | 1 to 10 |
| CC(C)(C)c1cc(NC(=O)Cc2ccc(F)cc2)on1 |  |  |  | < 0.1 |
| CC(C)(C)c1cc(NC(=O)Cc2ccc(NC(=O)c3ccc4cnccc4n3)cc2)no1 | < 0.1 | < 0.1 | > 10 |  |
| Cn1cc(C(=O)Nc2ccc(CC(=O)Nc3cc(C(C)(C)C)on3)cc2)c2ccccc21 | < 0.1 | < 0.1 | > 10 |  |
| CC(C)(C)c1cc(NC(=O)Cc2ccc(O)cc2)no1 |  |  |  | 0.1 to 1 |
| CC(C)(C)c1cc(NC(=O)Cc2ccc(Cl)cc2)on1 |  |  |  | < 0.1 |
| CC(C)(C)c1cc(NC(=O)Cc2ccc(OCc3ccccc3)cc2)on1 | < 0.1 |  |  | < 0.1 |
| O=C(Cc1ccc(OCc2ccccc2)cc1)Nc1cc(C2CC2)nn1-c1ccccc1 |  |  |  | 0.1 to 1 |
| CSc1ncc(Br)c(C(=O)Nc2ccc(CC(=O)Nc3cc(C(C)(C)C)on3)cc2)n1 | < 0.1 | < 0.1 | > 10 |  |
| COc1ccc(SC(=O)Nc2cc(C(C)(C)C)on2)cc1 |  |  |  | 1 to 10 |
| COc1ccc(CC(=O)Nc2cc(C3CC3)nn2-c2ccccc2)cc1 |  |  |  | 1 to 10 |
| CC(C)(C)c1cc(C(=O)Nc2ccc(OCC3CC3)cc2)no1 | 1 to 10 |  |  | > 10 |
| Cc1csc(NC(=O)Cc2ccc(OCc3ccccc3)cc2)n1 |  |  |  | > 10 |
| O=C(Cc1ccc(OCc2ccccc2)cc1)Nc1nc2ccccc2s1 |  |  |  | > 10 |
| CC(C)(C)c1cc(NC(=O)Sc2ccc(Cl)cc2)no1 |  |  |  | 1 to 10 |

| SMILES | IC50 (MV4,11 cells) [µM] | Kd (FLT3(JMminus)) [µM] | IC50 (Cell Assay: CS0002) [µM] | Kd (FLT3(DKIN)) [µM] |
| --- | --- | --- | --- | --- |
| COc1ccc(CC(=O)Nc2cc(C(C)(C)C)no2)cc1 |  |  |  | < 0.1 |
| O=C(Cc1ccc(OCc2ccccc2)cc1)Nc1nc2ccc(F)cc2s1 |  |  |  | > 10 |
| CC(C)(C)c1cc(-c2nc(-c3ccc(OCc4ccccc4F)cc3)no2)no1 | 0.1 to 1 |  |  | > 10 |
| CC(C)(C)c1cc(-c2nc(-c3ccc(O)cc3)no2)no1 | 1 to 10 |  |  | > 10 |
| Cc1cc(C)n(C(=O)Nc2ccc(Cl)cc2)n1 | > 10 |  |  | > 10 |
| Cc1noc(-c2ccc(-c3noc(-c4cc(C(C)(C)C)on4)n3)cc2)n1 | > 10 |  |  | > 10 |
| CC(C)(C)c1cc(-c2nc(-c3ccc(Cl)cc3)no2)no1 | > 10 |  |  | > 10 |
| Cc1cnc(NC(=O)Cc2ccc(OCc3ccccc3)cc2)s1 |  |  |  | > 10 |
| COc1cccc2sc(NC(=O)Cc3ccc(OCc4ccccc4)cc3)nc12 |  |  |  | > 10 |
| Cc1ccc(NC(=O)c2ccc(-c3noc(-c4cc(C(C)(C)C)on4)n3)cc2)cc1 | 0.1 to 1 |  |  | > 10 |
| CC(C)(C)c1cc(NC(=O)Cc2ccc(Br)cc2)on1 |  |  |  | < 0.1 |
| O=C(Cc1ccc(OCc2ccccc2)cc1)Nc1nc(-c2ccc(Cl)cc2)cs1 |  |  |  | > 10 |
| Cc1nn(C)c(Cl)c1C(=O)Nc1ccc(CC(=O)Nc2cc(C(C)(C)C)on2)cc1 | 0.1 to 1 | < 0.1 | > 10 |  |
| CC(C)(C)c1cc(NC(=O)Cc2ccc(NC(=O)c3cccc4cccnc34)cc2)no1 | 1 to 10 | 0.1 to 1 | > 10 |  |
| O=C(Cc1ccc(OCc2ccccc2)cc1)Nc1nc2cc(Cl)ccc2o1 |  |  |  | 0.1 to 1 |
| CC(C)(C)c1cc(/C=N/C(=N\O)c2ccc(Cl)cc2)no1 | 1 to 10 |  |  | 1 to 10 |
